Each structure is given as a SMILES string. Structures can show the parent of a compound that is named as a salt.

This assay relates to HCV replicon I389luc-ubi-neo/NS3-3′/ET in ET (Huh-lucubineo-ET) cells; screening for HCV RNA dependent RNA polymerase. The assay is described as follows: Replicon Assay (luciferase, ET cell line Huh-lucubineo-ET). It is filed as cell-based. Particulars: Hepatitis C virus; inhibition of replication relative to no compound control; test concentration of 10 μM according to the fitted equation; luciferase 48-72 hours. The method, then: A cell line, ET (Huh-lucubineo-ET) was used for screening of compounds of the present invention for HCV RNA dependent RNA polymerase. The ET cell line was stably transfected with RNA transcripts harboring a I389luc-ubi-neo/NS3-3′/ET; replicon with firefly luciferase-ubiquitin-neomycin phosphotransferase fusion protein and EMCV-IRES driven NS3-5B polyprotein containing the cell culture adaptive mutations (E1202G; T12801; K1846T) (Krieger at al, 2001 and unpublished). The ET cells were grown in DMEM, supplemented with 10% fetal calf serum, 2 mM Glutamine, Penicillin (100 IU/mL)/Streptomycin (100 μg/mL), 1× nonessential amino acids, and 250 μg/mL G418 (“Geneticin”). They were all available through Life Technologies (Bethesda, Md.). The cells were plated at 0.5-1.0×10^4 cells/well in the 96 well plates and incubated for 24 hrs before adding nucleoside analogs. […] Luciferase activity were measured 48-72 hours later by adding a lysis buffer and the substrate (Catalog number Glo-lysis buffer E2661 and Bright-Glo luciferase system E2620 Promega, Madison, Wis.). Cells should not be too confluent during the assay. Percent inhibition of replication was plotted relative to no compound control. Under the same condition, cytotoxicity of the compounds was determined using cell proliferation reagent, WST-1(Roche, Germany). The compounds showing antiviral activities, but no significant cytotoxicities were chosen to determine IC50 and TC50. For these determinations, 10 concentrations of each compound were used. Concentrations for test compounds typically span a range of 500 fold. IC50 and TC50 values were calculated by fitting % inhibition at each concentration (I) to the following equation: % inhibition=100%/[1+10^(log IC50−log (I))*b] where b is Hill's coefficient.
Background: In antiviral work, replicon cells carry a viral genome segment that copies itself.
As a reminder, the inhibition is the percentage by which the read-out fell short of the control. Turning to `O=C(NC1CC1)c1ccc(-c2csc(NC(=O)C3CCC[C@H]3C(=O)NCc3ccccc3)n2)cc1` (mixture of isomers) [Compound 5340, Cyclopentane-1,2-dicarboxylic acid 1-benzylamide 2-{[4-(4-cyclopropylcarbamoyl-phenyl)-thiazol-2-yl]-amide}], testing at 10 µM gave an inhibition of 100%.

Regarding `O=C(NC1CC1)c1ccc(-c2csc(NC(=O)C3CCCC3C(=O)NCc3ccccc3)n2)cc1` (racemic) [Compound 5382, Cyclopentane-1,2-dicarboxylic acid 1-benzylamide 2-{[4-(4-cyclopropylcarbamoyl-phenyl)-thiazol-2-yl]-amide}], testing at 10 µM gave an inhibition of 100%.

`CC(C)CC1CC(C)(c2csc(NC(=O)[C@@H]3CCCN3C(=O)OCc3ccccc3)n2)OC1=O` (stereo in doubt) [Compound 5009, 2-[4-(4-Isobutyl-2-methyl-5-oxo-tetrahydro-furan-2-yl)-thiazol-2-ylcarbamoyl]-pyrrolidine-1-carboxylic acid benzyl ester] had an inhibition at 10 µM of 63.4%.

Turning to `CC1(C)CC(c2csc(NC(=O)[C@@H]3CCCN3C(=O)OCc3ccccc3)n2)CCO1` (stereo in doubt) [Compound 5046, 2-[4-(2,2-Dimethyl-tetrahydro-pyran-4-yl)-thiazol-2-ylcarbamoyl]-pyrrolidine-1-carboxylic acid benzyl ester], the inhibition at 10 µM worked out at 8.29%.

In the case of `O=C(NC1CC1)c1ccc(-c2csc(NC(=O)[C@@H]3CCCN3C(=O)COc3ccccc3)n2)cc1` (stereo in doubt) [Compound 5331, 1-(2-Phenoxy-acetyl)-pyrrolidine-2-carboxylic acid [4-(4-cyclopropylcarbamoyl-phenyl)-thiazol-2-yl]-amide], the inhibition at 10 µM worked out at 43%.

`CC(C)(C)OC(=O)N1CCCC(NC(=O)c2ccc(-c3csc(NC(=O)[C@@H]4CCCN4C(=O)OCc4ccccc4)n3)cc2)C1` (stereo in doubt) [Compound 5365, 3-(4-{2-[(1-Benzyloxycarbonyl-pyrrolidine-2-carbonyl)-amino]-thiazol-4-yl}-benzoylamino)-piperidine-1-carboxylic acid tert-butyl ester]: at 10 µM the inhibition was 99.9%.

Molecule `Nc1cccc(-c2csc(NC(=O)C3CCCN3C(=O)OCc3ccccc3)n2)c1` (stereo not shown) [Compound 5001, 2-[4-(3-Amino-phenyl)-thiazol-2-ylcarbamoyl]-pyrrolidine-1-carboxylic acid benzyl ester] registered an inhibition at 10 µM of 99.6%.

In the case of `O=C(Nc1nc(-c2ccc3c(c2)OCO3)cs1)[C@@H]1CCCN1C(=O)OCc1ccccc1` [Compound 5002, 2-(4-Benzo[1,3]dioxol-5-yl-thiazol-2-ylcarbamoyl)-pyrrolidine-1-carboxylic acid benzyl ester], testing at 10 µM gave an inhibition of 94.7%.

As for `O=C(Nc1nc(CCc2ccccc2)cs1)[C@@H]1CCCN1C(=O)OCc1ccccc1` [Compound 5003, 2-(4-Phenethyl-thiazol-2-ylcarbamoyl)-pyrrolidine-1-carboxylic acid benzyl ester], the inhibition at 10 µM was found to be 99.9%.

Consider `CS(=O)(=O)Nc1ccc(-c2csc(NC(=O)C3CCCN3C(=O)OCc3ccccc3)n2)cc1` (stereo not shown) [Compound 5004, 2-[4-(4-Methanesulfonylamino-phenyl)-thiazol-2-ylcarbamoyl]-pyrrolidine-1-carboxylic acid benzyl ester], for which the inhibition at 10 µM is 99.9%.

Consider `Cc1ccc(S(=O)(=O)Nc2ccc(-c3csc(NC(=O)[C@@H]4CCCN4C(=O)OCc4ccccc4)n3)cc2)cc1` [Compound 5005, 2-{4-[4-(Toluene-4-sulfonylamino)-phenyl]-thiazol-2-ylcarbamoyl}-pyrrolidine-1-carboxylic acid benzyl ester], for which testing at 10 µM gave an inhibition of 99.8%.

With `O=C(Nc1ccc(-c2csc(NC(=O)C3CCCN3C(=O)OCc3ccccc3)n2)cc1)C1CCCC1` (stereo not shown) [Compound 5006, 2-{4-[4-(Cyclopentanecarbonyl-amino)-phenyl]-thiazol-2-ylcarbamoyl}-pyrrolidine-1-carboxylic acid benzyl ester], the inhibition at 10 µM was 99.9%.

In turn, `O=C(Nc1nc(-c2cc3ccccc3oc2=O)cs1)[C@@H]1CCCN1C(=O)OCc1ccccc1` [Compound 5007, 2-[4-(2-Oxo-2H-chromen-3-yl)-thiazol-2-ylcarbamoyl]-pyrrolidine-1-carboxylic acid benzyl ester] had an inhibition at 10 µM of 100%.

As to `O=C(Nc1nc(-c2cccc([N+](=O)[O-])c2)cs1)[C@@H]1CCCN1C(=O)OCc1ccccc1` [Compound 5008, 2-[4-(3-Nitro-phenyl)-thiazol-2-ylcarbamoyl]-pyrrolidine-1-carboxylic acid benzyl ester; hydrobromide], the inhibition at 10 µM was determined as 63%.

With `O=C(Nc1nc(Sc2nnc(-c3ccccc3)o2)cs1)[C@@H]1CCCN1C(=O)OCc1ccccc1` [Compound 5010, 2-[4-(5-Phenyl-[1,3,4]oxadiazol-2-ylsulfanyl)-thiazol-2-ylcarbamoyl]-pyrrolidine-1-carboxylic acid benzyl ester], the inhibition at 10 µM was determined as 6.41%.

In turn, `CCCOc1ccc(-c2cnc(NC(=O)[C@@H]3CCCN3C(=O)OCc3ccccc3)s2)cc1` [Compound 5011, 2-[5-(4-Propoxy-phenyl)-thiazol-2-ylcarbamoyl]-pyrrolidine-1-carboxylic acid benzyl ester] returned an inhibition at 10 µM of 32.9%.

Molecule `O=C(Nc1ncc(Cc2cccc(Cl)c2Cl)s1)[C@@H]1CCCN1C(=O)OCc1ccccc1` [Compound 5012, 2-[5-(2,3-Dichloro-benzyl)-thiazol-2-ylcarbamoyl]-pyrrolidine-1-carboxylic acid benzyl ester] displayed an inhibition at 10 µM of 1.01%.

Take `CN(C)c1ccc(-c2csc(NC(=O)C3CCCN3C(=O)OCc3ccccc3)n2)cc1` (stereo not shown) [Compound 5013, 2-[4-(4-Dimethylamino-phenyl)-thiazol-2-ylcarbamoyl]-pyrrolidine-1-carboxylic acid benzyl ester]: the inhibition at 10 µM is 97%.

On to `O=C(Nc1nc(-c2c(F)c(F)c(F)c(F)c2-c2ccccc2)cs1)[C@@H]1CCCN1C(=O)OCc1ccccc1` [Compound 5014, 2-[4-(3,4,5,6-Tetrafluoro-biphenyl-2-yl)-thiazol-2-ylcarbamoyl]-pyrrolidine-1-carboxylic acid benzyl ester], for which the inhibition at 10 µM was 66.6%.

Consider `CC(=O)Nc1cccc(-c2csc(NC(=O)[C@@H]3CCCN3C(=O)OCc3ccccc3)n2)c1` [Compound 5015, 2-[4-(3-Acetylamino-phenyl)-thiazol-2-ylcarbamoyl]-pyrrolidine-1-carboxylic acid benzyl ester], for which the inhibition at 10 µM was 99.4%.

`COc1ccc(-c2csc(NC(=O)[C@@H]3CCCN3C(=O)OCc3ccccc3)n2)cc1Br` [Compound 5016, 2-[4-(3-Bromo-4-methoxy-phenyl)-thiazol-2-ylcarbamoyl]-pyrrolidine-1-carboxylic acid benzyl ester]: the inhibition at 10 µM turned out to be 100%.

`CCC(=O)Nc1ccc(-c2csc(NC(=O)[C@@H]3CCCN3C(=O)OCc3ccccc3)n2)cc1` [Compound 5017, 2-[4-(4-Propionylamino-phenyl)-thiazol-2-ylcarbamoyl]-pyrrolidine-1-carboxylic acid benzyl ester] returned an inhibition at 10 µM of 99.7%.

In turn, `O=C(Nc1ccc(-c2csc(NC(=O)C3CCCN3C(=O)OCc3ccccc3)n2)cc1)C1CC1` (stereo not shown) [Compound 5018, 2-{4-[4-(Cyclopropanecarbonyl-amino)-phenyl]-thiazol-2-ylcarbamoyl}-pyrrolidine-1-carboxylic acid benzyl ester] showed an inhibition at 10 µM of 100%.

`O=C(Nc1cccc(-c2csc(NC(=O)C3CCCN3C(=O)OCc3ccccc3)n2)c1)c1ccccc1` (stereo not shown) [Compound 5019, 2-[4-(3-Benzoylamino-phenyl)-thiazol-2-ylcarbamoyl]-pyrrolidine-1-carboxylic acid benzyl ester] returned an inhibition at 10 µM of 100%.

Molecule `COc1c(F)c(F)c(-c2csc(NC(=O)[C@@H]3CCCN3C(=O)OCc3ccccc3)n2)c(F)c1F` [Compound 5020, 2-[4-(2,3,5,6-Tetrafluoro-4-methoxy-phenyl)-thiazol-2-ylcarbamoyl]-pyrrolidine-1-carboxylic acid benzyl ester] showed an inhibition at 10 µM of 58.2%.

The molecule `Cc1ccc(-c2csc(NC(=O)[C@@H]3CCCN3C(=O)OCc3ccccc3)n2)c(C)c1` [Compound 5021, 2-[4-(2,4-Dimethyl-phenyl)-thiazol-2-ylcarbamoyl]-pyrrolidine-1-carboxylic acid benzyl ester] showed an inhibition at 10 µM of 97%.

`Cc1ccc(-c2csc(NC(=O)[C@@H]3CCCN3C(=O)OCc3ccccc3)n2)cc1` [Compound 5022, 2-(4-p-Tolyl-thiazol-2-ylcarbamoyl)-pyrrolidine-1-carboxylic acid benzyl ester] had an inhibition at 10 µM of 56%.

The molecule `O=C(Nc1nc(-c2ccc(F)cc2F)cs1)[C@@H]1CCCN1C(=O)OCc1ccccc1` [Compound 5023, 2-[4-(2,4-Difluoro-phenyl)-thiazol-2-ylcarbamoyl]-pyrrolidine-1-carboxylic acid benzyl ester] displayed an inhibition at 10 µM of 76.5%.

These data come from patent US7595398B2, “N-(5-membered aromatic ring)-amido anti-viral compounds” (SmithKline Beecham Corporation, priority 2005, dated 2009).
